Test results as given in PMC4875962 (Clinical Pharmacokinetics, 2015).
Entries after “also recorded” stand apart in the source; their conditions may differ. Where two headings read alike, the source gives them in different places. Marks after values point to notes of the source that are not given here.

Experiments:
[1] = cited from earlier work; for dose–exposure relationship: oral doses 10–180 mg
[2] = concentrations of 0.2–5 µg/mL; cited from earlier work
[3] = cited from earlier work
[4] = pH range of 3–7, decreases with increasing pH; cited from earlier work
[5] = system: Caco-2 cells; conditions: cited from earlier work
[6] = system: P-glycoprotein (P-gp); conditions: Caco-2 cell monolayers; cited from earlier work
[7] = system: OATP1B1; conditions: cited from earlier work
[8] = system: OAT1; conditions: cited from earlier work
[9] = system: OAT3; conditions: cited from earlier work
[10] = system: OCT2; conditions: cited from earlier work
[11] = system: P-gp; conditions: read-out: IC50, inhibitory effect on P-gp; cited from earlier work
[12] = system: OATP1B1; conditions: read-out: IC50, inhibitory effect on OATP1B1; cited from earlier work
[13] = system: OATP1B3; conditions: read-out: IC50, inhibitory effect on OATP1B3; cited from earlier work
[14] = system: OAT3; conditions: read-out: IC50, inhibitory effect on OAT3; cited from earlier work
[15] = system: OCT2; conditions: read-out: IC50, inhibitory effect on OCT2; cited from earlier work
[16] = 60 mg of [14C]-edoxaban, cited from earlier work
[17] = cited from earlier work; remark: listed apart in the source
[18] = cited from earlier work; remark: listed apart in the source
[19] = single dose, vs matched healthy controls; cited from earlier work
[20] = system: PT, INR, aPTT, intrinsic FX activity, thrombin generation, anti-FXa; conditions: cited from earlier work
[21] = system: plasma anti-FXa activity, PT, aPTT; conditions: cited from earlier work
[22] = system: ex vivo thrombus formation; conditions: single 60 mg dose, healthy subjects; cited from earlier work
[23] = system: thrombin generation and platelet activation; conditions: postdose; cited from earlier work
[24] = 60 mg twice daily, elderly healthy subjects; cited from earlier work
[25] = cited from earlier work; remark: listed apart in the source
[26] = cited from earlier work; remark: listed apart in the source
[27] = cited from earlier work; remark: listed apart in the source
[28] = cited from earlier work; remark: listed apart in the source
[29] = cited from earlier work; remark: listed apart in the source
[30] = In vitro plasma protein binding
[31] = system: CYP1A2; assay: Induction of gene expression in human hepatocytes; conditions: data on file
[32] = system: CYP3A4; assay: Induction of gene expression in human hepatocytes; conditions: data on file
[33] = Drug-drug interaction studies: effect on edoxaban pharmacokinetics; conditions: coadministration of high-dose aspirin (325 mg); data on file
[34] = intravenous 30 mg, healthy subjects
[35] = single oral dose of edoxaban 60 mg, healthy subjects, mean ± SD
[36] = 60 mg daily for 4 days, day 1 and day 4
[37] = Mild impairment: CLCR ≥50–≤80 mL/min
[38] = Moderate impairment: CLCR ≥30–<50 mL/min
[39] = Severe impairment: CLCR <30 mL/min

CN1CCc2nc(C(=O)N[C@@H]3C[C@@H](C(=O)N(C)C)CC[C@@H]3NC(=O)C(=O)Nc3ccc(Cl)cn3)sc2C1 [edoxaban]
effect of age, sex and race on edoxaban pharmacokinetics ([1]; after renal function is taken into account): do not affect | contribution of any individual metabolic pathway to total clearance [1]: ≤ 10% | inter- and intra-subject variability in clearance and volume of distribution [1]: < 30% | metabolism by CYP3A4 (CYP3A4/5) (share of clearance) [1]: < 10% | renal clearance as share of total clearance [1]: approximately 50% | Renal clearance ([1]; healthy subjects): about 10.7 ± 3.00 L/h | metabolism by CES1 (share of clearance) ([1]; human-specific metabolite): < 10% | CL total body clearance [1, 34]: approximately 22 L/h | V ss steady-state volume of distribution [1, 34]: approximately 107 L | V z volume of distribution based on the terminal phase [1, 34]: 205 ± 64.8 L | CL total body clearance ([1]; intravenous 30 mg, healthy subjects, listed as Edoxaban): 21.8 ± 3.03 L/h | dose–exposure relationship ([1]; healthy subjects): approximately dose proportional; also recorded: slightly less-than-dose-proportional | dose–exposure relationship ([1]; healthy subjects, listed as Edoxaban): generally linear and dose-proportional | terminal elimination half-life ([1]; oral, healthy subjects): 10 to 14 h | CLR (oral) ([1]; single oral dose of edoxaban 60 mg, healthy subjects, N = 32): 9.95 ± 2.32^a L/h | AUC∞ (oral) [1, 35]: 1766 ± 435.3 ng·h/mL | C max (oral) [1, 35]: 256 ± 87.7 ng/mL | t ½ (oral) [1, 35]: 11.5 ± 5.63 h | t max (oral) ([1]; single oral dose of edoxaban 60 mg, healthy subjects, median [minimum–maximum]): 1.02 [0.500–3.00] h | in vitro total plasma protein binding [2]: about 55% | partition in blood [3]: 46% | solubility [4]: pH dependent | permeability in Caco-2 cells [5]: poor | substrate of the efflux transporter P-gp [6]: is a substrate | substrate of OATP1B1 [7]: is not a substrate | substrate of OAT1 [8]: is not a substrate | substrate of OAT3 [9]: is not a substrate | substrate of OCT2 [10]: is not a substrate | IC50 [11]: ≥ 50 µM | IC50 [12]: ≥ 50 µM | IC50 [13]: ≥ 50 µM | IC50 [14]: ≥ 100 µM | IC50 [15]: ≥ 100 µM | total radioactive dose detected in faeces ([16]; healthy subjects): 62% | total radioactive dose detected in urine ([16]; healthy subjects): 35% | unchanged edoxaban in faeces, share of total administered radioactive dose [16]: 49% | unchanged edoxaban in urine, share of total administered radioactive dose [16]: 24% | increase of mean peak exposure (Cmax) in the fed state vs fasted state ([17]; 60 mg single dose): 6–22% | increase of total exposure with food ([17]; 60 mg single dose): 12–15% | effect of food on total exposure [17]: Coadministration with food does not affect total edoxaban exposure | fraction absorbed in the colon [18]: approximately 13% | effect of mild or moderate hepatic impairment on peak or total exposure [19]: did not significantly impact | effect on PT, INR, aPTT or intrinsic FX activity ([20]; coadministration of low-dose aspirin (100 mg)): did not significantly affect | effect on anti-FXa when both drugs coadministered ([20]; edoxaban 60 mg and subcutaneous enoxaparin 1 mg/kg): additive | time to peak elevation of PT and aPTT [21, 36]: ≤ 2 h | time to return of PT and aPTT to near-baseline levels [21, 36]: ≤ 24 h | time to peak effects on anticoagulation markers (anti-FXa, PT, aPTT) ([21]; oral administration): 1 to 2 h | time to maximum effect on plasma anti-FXa activity ([21]; single dose 10–150 mg, healthy subjects): 1 to 2 h | ex vivo thrombus formation under high and low shear rates [22]: markedly reduced | time of nadir for shed blood F1+2 and β-thromboglobulin [23]: 1.5 h | rebound effect following cessation of dosing [24]: no evidence of a rebound effect | pharmacokinetic parameters vs continual treatment with edoxaban ([25]; 60 mg on day 4 after rivaroxaban 20 mg once daily for 3 days): similar | pharmacokinetic parameters vs 4 days of continual edoxaban ([25]; 60 mg single dose after dabigatran 150 mg twice daily for 3 days): similar | anticoagulant effects (anti-FXa, PT, aPTT, ETP) vs 4 days of continual edoxaban ([25]; after switching from rivaroxaban): similar | PT and anti-FXa activities, switched from dabigatran vs continuous edoxaban [25]: not different | aPTT and ETP after switching from dabigatran [25]: carryover effect | effect of warfarin on the pharmacokinetics of edoxaban ([25]; switching 24 h after cessation of warfarin): no effect | safety assessed by bleeding events versus warfarin [26]: improved safety | efficacy versus warfarin ([26]; non-valvular AF, deep vein thrombosis and pulmonary embolism): noninferior | AUC∞ [27, 37]: 636 ± 152 ng·h/mL | CL/F [27, 37]: 24.8 ± 6.00 L/h | CLR [27, 37]: 7.68 ± 2.57 L/h | AUC∞ [27, 38]: 816 ± 209 ng·h/mL | C max [27, 38]: 115 ± 42.3 ng/mL | CL/F [27, 38]: 19.4 ± 4.69 L/h | CLR [27, 38]: 4.30 ± 1.72 L/h | AUC∞ ([27]; Normal: CLCR >80 mL/min): 453 ± 102 ng·h/mL | CL/F ([27]; Normal: CLCR >80 mL/min): 34.6 ± 7.32 L/h | C max [27, 39]: 91.9 ± 32.8 ng/mL | CL/F [27, 39]: 18.5 ± 4.87 L/h | CLR [27, 39]: 2.12 ± 0.88 L/h | higher total exposure vs normal renal function ([27]; mild renal impairment (CLCR ≥50–≤80 mL/min)): 32% | higher total exposure vs normal renal function ([27]; moderate renal impairment (CLCR ≥30–<50 mL/min)): 74% | higher total exposure vs normal renal function ([27]; severe renal impairment (CLCR <30 mL/min)): 72% | effect on prolongation of bleeding time ([28]; coadministration of edoxaban and low-dose (100 mg) or high-dose aspirin (325 mg)): additive effect | increase in bleeding time vs naproxen alone ([28]; coadministration of edoxaban with naproxen, 90 % CI 98.1–151.0): 22% | effect of ABCB1 genotype (C3435T) on pharmacokinetics [29]: no effect | fraction unbound [30]: ~0.45 | induction of gene expression of CYP1A2 [31]: do not induce | induction of gene expression of CYP3A4 [32]: do not induce | reduction of renal clearance of edoxaban [33]: 17%
